Experimental data: publication PMC4105438, “Novel Benzoxazine-Based Aglycones Block Glucose Uptake In Vivo by Inhibiting Glycosidases” (PLoS ONE, 2014)
Values joined by “and” are separate entries in the source; they are usually repeats but may differ in a detail not shown here. Equal values may be shown once.

Columns and labels:
[1] = tested on: overnight fasted Wistar rats; assay: Oral maltose tolerance test; format: in vivo, rat; conditions: acarbose 3 mg/kg oral, maltose 3 g/kg, compared to maltose control
Text: (§1) Adult Wistar rats weighing 150–180 g were collected from the University Central Animal Facility and housed under a controlled environment. All animal experiments were approved by the Institutional Animal Ethical Committee (Order No : MGZ/2620/2011-12 Dated 31-01-2012; UOM/IAEC/18/2011), Department of Studies in Zoology, University of Mysore, Mysore and were in accordance with the guidelines of the Committee for the Purpose of Control and Supervision of Experiments on Animals (CPCSEA).
(§2) The experimental animals were randomly divided into 11 groups each consisting of 5 rats. […] Blood was collected from the tail vein to the tubes containing anticoagulant (2.5% trisodium citrate and 1.37% citric acid in the ratio 1∶5; anti-coagulant: blood) at time point 0 (just before sucrose/maltose administration), and subsequently at 30, 60, 90, 120 and 180 min after substrate (sucrose/maltose) administration. Plasma was separated by centrifuging the samples at 2000 rpm for 10 min and stored at −20°C until analysis. Plasma glucose concentration was determined by using the Glucose oxidase (GOD POD) kit according to the manufacturer’s protocol.

[2] = tested on: overnight fasted Wistar rats; assay: Oral sucrose tolerance test; format: in vivo, rat; conditions: acarbose 3 mg/kg oral, sucrose 3 g/kg, compared to sucrose control
Text: as §1, §2

[3] = molecular target: rat intestinal maltase; assay: Intestinal α-glucosidase inhibitory assay, maltose as substrate; format: biochemical; conditions: rat intestinal acetone powder, maltose 37 mM, 30 min
Method: Intestinal α-glucosidase activity was determined by measuring the amount of glucose hydrolyzed from maltose or sucrose. Briefly, rat intestinal acetone powder was homogenized in 0.9% saline and the suspension was centrifuged at 10,000 g for 30 min at 4°C and the supernatant obtained was used as enzyme source. […] After the respective incubation period, reaction was terminated by keeping the samples in boiling water bath for 10 min. The concentration of glucose released from the reaction mixtures was determined by using Glucose oxidase (GOD POD) kit according to the manufacturer’s protocol. Results were expressed as percentage inhibition of intestinal maltase/sucrase activity.

[4] = molecular target: T1, Porcine pancreatic α-amylase (Sus scrofa, UniProt P00690); assay: α-amylase inhibition assay (starch, DNS reagent); format: biochemical; conditions: 0–100 µM, pre-incubation 10 min 37°C, pH 6.9; NS = not significant
T1 construct: purchased SRL, Mumbai (India)
T1 sequence (P00690 16-511): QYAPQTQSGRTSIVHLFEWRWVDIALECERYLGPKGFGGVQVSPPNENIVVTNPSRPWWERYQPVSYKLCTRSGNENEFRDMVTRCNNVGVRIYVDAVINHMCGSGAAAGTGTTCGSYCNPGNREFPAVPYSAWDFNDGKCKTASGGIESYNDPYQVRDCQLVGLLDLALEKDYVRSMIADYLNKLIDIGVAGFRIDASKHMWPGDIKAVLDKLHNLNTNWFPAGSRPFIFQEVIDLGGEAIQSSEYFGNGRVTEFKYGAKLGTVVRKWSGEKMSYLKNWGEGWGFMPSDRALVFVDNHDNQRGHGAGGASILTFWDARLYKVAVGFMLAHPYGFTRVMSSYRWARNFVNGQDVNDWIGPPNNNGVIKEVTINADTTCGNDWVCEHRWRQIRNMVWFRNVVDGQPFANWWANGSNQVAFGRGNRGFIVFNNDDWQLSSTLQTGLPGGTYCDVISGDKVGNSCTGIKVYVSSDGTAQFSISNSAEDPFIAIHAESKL
Method: Porcine pancreatic α-Amylase and Yeast α-Glucosidase were purchased from SRL, Mumbai (India). Glucose oxidase (GOD POD) kit was purchased from Piramal HealthCare Ltd, Mumbai (India). All other chemicals used were of analytical grade and purchased from Sigma Aldrich, St. Louis (USA) and SRL, Mumbai (India). […] Mass spectra were determined on a Shimadzu LC-MS. The elemental analyses were carried out using an Elemental Vario Cube CHNS rapid Analyzer. The progress of the reaction was monitored by TLC pre-coated silica gel G plates.
The α-amylase inhibition assay was performed according to a previous report. Porcine pancreatic α-amylase (3 units/mL) was dissolved in 0.1 M phosphate buffered saline, pH 6.9. […] The reaction was initiated by adding substrate solution (0.1% starch) to the incubation medium. After 10 min incubation, the reaction was stopped by adding 250 µL dinitrosalicylic (DNS) reagent (1% 3, 5-dinitrosalicylic acid, 0.2% phenol, 0.05% Na2SO3 and 1% NaOH in aqueous solution) to the reaction mixture. The reaction was terminated by keeping the reaction mixture in boiling water bath for 10 min. Thereafter, 250 µL of 40% potassium sodium tartarate solution was added to the mixtures to stabilize the colour. After cooling to room temperature in a cold water bath, the absorbance was recorded at 540 nm using a Varioskan multimode plate reader (Thermo Scientifics, USA). Acrabose was used as positive control. The percentage of inhibition was calculated using Abs Contol – Abs Sample ×100/Abs Control. Where Abs Control was the absorbance without sample, Abs sample was the absorbance of enzyme with compound.

[5] = molecular target: T2, α-Glucosidase (Saccharomyces cerevisiae, UniProt P53341); assay: biochemical; conditions: 0–100 µM, pre-incubation 10 min 37°C, pH 6.9; NS = not significant
T2 construct: purchased SRL, Mumbai (India)
T2 sequence (P53341 whole entry): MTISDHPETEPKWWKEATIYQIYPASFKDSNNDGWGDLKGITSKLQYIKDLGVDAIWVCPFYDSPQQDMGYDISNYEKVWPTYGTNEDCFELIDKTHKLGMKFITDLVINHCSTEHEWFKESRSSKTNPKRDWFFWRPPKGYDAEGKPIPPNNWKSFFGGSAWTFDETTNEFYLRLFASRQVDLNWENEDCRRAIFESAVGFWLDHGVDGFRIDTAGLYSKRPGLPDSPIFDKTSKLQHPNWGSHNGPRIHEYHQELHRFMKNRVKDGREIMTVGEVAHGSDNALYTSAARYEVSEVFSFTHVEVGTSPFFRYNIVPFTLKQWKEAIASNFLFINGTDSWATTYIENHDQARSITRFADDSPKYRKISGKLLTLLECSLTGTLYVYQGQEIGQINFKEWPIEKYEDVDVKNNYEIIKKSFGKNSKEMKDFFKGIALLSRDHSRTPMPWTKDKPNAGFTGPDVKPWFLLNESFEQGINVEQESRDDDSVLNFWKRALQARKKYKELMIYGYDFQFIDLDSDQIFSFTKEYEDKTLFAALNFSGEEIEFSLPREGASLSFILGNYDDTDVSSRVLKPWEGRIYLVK
Method: Porcine pancreatic α-Amylase and Yeast α-Glucosidase were purchased from SRL, Mumbai (India). Glucose oxidase (GOD POD) kit was purchased from Piramal HealthCare Ltd, Mumbai (India). All other chemicals used were of analytical grade and purchased from Sigma Aldrich, St. Louis (USA) and SRL, Mumbai (India). All IR spectra were obtained in KBr disc on a Shimadzu FT-IR 157 Spectrometer. ^1H and ^13C NMR spectra were recorded on a Bruker WH-200 (400 MZ) spectrometer in CDCl3 or DMSO-d6 as solvent, using TMS as an internal standard and chemical shifts are expressed as ppm. Mass spectra were determined on a Shimadzu LC-MS. The elemental analyses were carried out using an Elemental Vario Cube CHNS rapid Analyzer. The progress of the reaction was monitored by TLC pre-coated silica gel G plates.
The α-glucosidase inhibitory activities of synthesized compounds were evaluated using the method developed by Tsujii et al.. Briefly, α-glucosidase was dissolved in phosphate buffer (50 mM, pH 6.9) and pre-treated with various concentrations of 1,3-benzoxazine derivatives (0–100 µM) independently for 10 min at 37°C. The reaction was initiated by the addition of 50 µL of 5 mM p-nitrophenyl- α -D-glucopyranoside solution in phosphate buffer (50 mM, pH 6.9). The enzyme reaction was carried out at 37°C for 30 min. The reaction was terminated by the addition of Na2CO3 (1 M). The enzymatic activity of α-glucosidase was quantified by measuring the absorption at 405 nm using a Varioskan multimode plate reader (Thermo Scientifics, USA). The inhibitory effect of compounds was defined as inhibitory activity (%) = (Abs Control – Abs Compound treated)/Abs Control ×100. Concentration-response assays were used to determine the potency (IC50) of 1,3-benzoxazine derivatives based on the logistic analysis of the concentration-response curve using Microsoft Excel.

| IC50 [3] | IC50 [4] | IC50 [5] | melting point | Structure (SMILES) | plasma glucose concentration [1] | plasma glucose concentration [2] |
| --- | --- | --- | --- | --- | --- | --- |
| 3.5 µM |  |  |  | C[C@H]1O[C@H](O[C@H]2[C@H](O)[C@@H](O)[C@@H](O[C@H]3[C@H](O)[C@@H](O)C(O)O[C@@H]3CO)O[C@@H]2CO)[C@H](O)[C@@H](O)[C@@H]1N[C@H]1C=C(CO)[C@@H](O)[C@H](O)[C@H]1O (some centres unmarked) [Acarbose, reference compound] | significantly reduced the plasma glucose concentration at 30, 60, 90 min time intervals | only significant at 60 and 90 min time points |
|  | 20.4 ± 0.2 µM | 17.1 ± 0.1 µM | 160 to 162 °C | Oc1ccc(C2Nc3ccccc3CO2)cc1 (centres unmarked) [compound 1, 4-(2,4-dihydro-1H-benzo[d][1,3]oxazin-2-yl)phenol] |  |  |
|  | 59.2 ± 1 µM | 32 ± 0.2 µM |  | c1ccc2c(c1)COC(c1c[nH]c3ccccc13)N2 (centres unmarked) [compound 2, 2-(1H-indol-3-yl)-2,4-dihydro-1H-benzo[d][1,3]oxazine] |  |  |
|  | 10.6 ± 0.3 µM | 21.6 ± 0.1 µM |  | Cc1[nH]c2ccccc2c1C1Nc2ccccc2CO1 (centres unmarked) [compound 3, 2-(2-methyl-1H-indol-3-yl)-2,4-dihydro-1H-benzo[d][1,3]oxazine] |  |  |
|  | 23.3 ± 0.5 µM | > 100 µM | 142 to 144 °C | O=c1c(C2Nc3ccccc3CO2)coc2ccccc12 (centres unmarked) [compound 5, 3-(2,4-dihydro-1H-benzo[d][1,3]oxazin-2-yl)-4H-chromen-4-one] |  |  |
|  | 18.5 ± 0.1 µM | 16 µM and 16.7 µM | 80 to 82 °C | CCCCc1nc(Cl)c(C2Nc3ccccc3CO2)[nH]1 (centres unmarked) [compound 6, 2-(2-butyl-4-chloro-1H-imidazol-5-yl)-2,4-dihydro-1H-benzo[d][1,3]oxazine] |  |  |
|  | 26.4 ± 0.5 µM | 27.7 ± 1 µM |  | Clc1ccc2c(c1)NC(c1c[nH]c3ccccc13)OC2 (centres unmarked) [compound 8, 7-chloro-2-(1H-indol-3-yl)-2,4-dihydro-1H-benzo[d][1,3]oxazine] |  |  |
|  | 22.2 ± 0.1 µM | 27.8 ± 0.2 µM |  | Clc1ccc2c(c1)COC(c1c(-c3ccccc3)[nH]c3ccccc13)N2 (centres unmarked) [compound 9, 6-chloro-2-(2-phenyl-1H-indol-3-yl)-2,4-dihydro-1H-benzo[d][1,3]oxazine] |  |  |
|  | > 100 µM | 31.9 ± 0.8 µM | 141 to 143 °C | O=c1c(C2Nc3ccc(Cl)cc3CO2)coc2ccccc12 (centres unmarked) [compound 10, 3-(6-chloro-2,4-dihydro-1H-benzo[d][1,3]oxazin-2-yl)-4H-chromen-4-one] |  |  |
|  | > 100 µM | 23.8 ± 0.1 µM |  | Cc1ccc2c(c1)COC(c1c(C)[nH]c3ccccc13)N2 (centres unmarked) [compound 11, 6-methyl-2-(2-methyl-1H-indol-3-yl)-2,4-dihydro-1H-benzo[d][1,3]oxazine] |  |  |
|  | 17.6 ± 0.3 µM | 20.5 ± 0.5 µM |  | Cc1ccc2c(c1)COC(c1c(-c3ccccc3)[nH]c3ccccc13)N2 (centres unmarked) [compound 12, 6-methyl-2-(2-phenyl-1H-indol-3-yl)-2,4-dihydro-1H-benzo[d][1,3]oxazine] |  |  |
|  | 51 ± 0.3 µM | > 100 µM | 202 to 204 °C | Cc1ccc2c(c1)COC(c1coc3ccccc3c1=O)N2 (centres unmarked) [compound 13, 3-(6-methyl-2,4-dihydro-1H-benzo[d][1,3]oxazin-2-yl)-4H-chromen-4-one] |  |  |

| Structure (SMILES) | IC50 [3] | IC50 [4] | IC50 [5] | melting point | plasma glucose concentration [1] | plasma glucose concentration [2] |
| --- | --- | --- | --- | --- | --- | --- |
| N#Cc1ccccc1-c1ccc(Cn2cc(C3Nc4ccccc4CO3)c3ccccc32)cc1 (centres unmarked) [compound 4] |  | > 100 µM | > 100 µM |  |  |  |
